What was measured:
Assay type in all cases: in vivo
[1] = test system: Zymoseptoria tritici strain Zt StA; test: In planta preventive efficacy on wheat cv. Alixan against Zymoseptoria tritici strain Zt StA (control strain, sensitive); conditions: for Disease Severity Intensity: % of length of 2nd leaf blade, preventive 24 h; for AUDPC: control 781.6
Experimental: (§1) A series of experiments were conducted to evaluate the efficacy of flumetylsulforim (ADF-16) for treating different strains of Zymoseptoria tritici in comparison with commercially available fungicides. Table 1 describes the Z. tritici strains used in this study and Table 2 describes the fungicides used in this study.
(§2) Winter wheat plants cv. Alixan (Limagrain) at the BBCH 12 growth stage were treated preventively with sterile distilled water (control), ADF-16, penthiopyrad, metconazole or tebuconazole at the rates described in Table 2 with a hand sprayer at 2 bars.
(§3) After treatment, wheat plants were left to dry at room temperature for 1 hour and then placed in a climatic chamber: temperature of 24 °C day/18 °C night-photoperiod of 16 h light/8 h dark and a relative humidity of 65%.
(§4) Untreated or treated whole wheat plants were inoculated 24-hours post-treatment with a calibrated pycnospore suspension of Z. tritici strains Zt StA, Zt 61, Zt 99, Zt 20, Zt 19-52, and Zt 38-02. Three replicates (pots) of 6 wheat plants each were used for each condition tested.
(§5) After inoculation, pots were transferred in a climatic chamber: temperature of 20 °C day/17 °C night—photoperiod of 16 h light/8 h dark and controlled relative humidity.
(§6) Disease assessments were carried out at 15 days post inoculation (dpi), 21 dpi and 28 dpi by measuring the length of the necrosis on the second leaf blade. The intensity of infection was then determined as a percentage of the total length of 2nd leaf blade.
(§7) The fungicide efficacies were determined from the Area Under the Disease Progress Curve (AUDPC) values and expressed as a percentage of the untreated control.
(§8) The AUDPC is a quantitative measure of disease intensity over time. The most commonly used method for estimating the AUDPC, the trapezoidal method, is performed by multiplying the average disease intensity between each pair of adjacent timepoints by the corresponding time interval and this for each time interval. The AUDPC is determined with the following formula by adding all of the trapezoids:
(§9) [formula] • yi=disease severity at the ith observation • ti=time (days) at the ith observation • N=total number of observations

[2] = test system: Zymoseptoria tritici strain Zt 61; test: In planta preventive efficacy on wheat cv. Alixan against Zymoseptoria tritici strain Zt 61; set-up: fungicide efficacy: concentration or dose not given beside the values; conditions: for Disease Severity Intensity: % of length of 2nd leaf blade, preventive 24 h; for AUDPC: control 1194.9
Experimental: as §1, §2, §3, §4, §5, §6, §7, §8, §9

[3] = test system: Zymoseptoria tritici strain Zt 99; test: In planta preventive efficacy on wheat cv. Alixan against Zymoseptoria tritici strain Zt 99; conditions: for Disease Severity Intensity: % of length of 2nd leaf blade, preventive 24 h; for AUDPC: control 1352.9
Experimental: as §1, §2, §3, §4, §5, §6, §7, §8, §9

[4] = test system: Zymoseptoria tritici strain Zt 19-52; test: In planta preventive efficacy on wheat cv. Alixan against Zymoseptoria tritici strain Zt 19-52; conditions: % of length of 2nd leaf blade, preventive 24 h
Experimental: as §1, §2, §3, §4, §5, §6, §7, §8, §9

[5] = test system: Zymoseptoria tritici strain Zt 20; test: In planta preventive efficacy on wheat cv. Alixan against Zymoseptoria tritici strain Zt 20; conditions: % of length of 2nd leaf blade, preventive 24 h
Experimental: as §1, §2, §3, §4, §5, §6, §7, §8, §9

[6] = test system: Zymoseptoria tritici strain Zt 38-02; test: In planta preventive efficacy on wheat cv. Alixan against Zymoseptoria tritici strain Zt 38-02; conditions: for Disease Severity Intensity: % of length of 2nd leaf blade, preventive 24 h; for AUDPC: control 1261.4
Experimental: as §1, §2, §3, §4, §5, §6, §7, §8, §9

[7] = 15 dpi, rate N (g a.i./ha): ADF-16 100, penthiopyrad 200, metconazole 90, tebuconazole 250, control also no disease
[8] = 15 dpi, rate N/2.5 (g a.i./ha): ADF-16 40, penthiopyrad 80, metconazole 36, tebuconazole 100, control also no disease
[9] = rate N (g a.i./ha): ADF-16 100, penthiopyrad 200, metconazole 90, tebuconazole 250
[10] = rate N/2.5 (g a.i./ha): ADF-16 40, penthiopyrad 80, metconazole 36, tebuconazole 100

With CC(C)CC(C)c1sccc1NC(=O)c1cn(C)nc1C(F)(F)F (stereo not drawn) [Penthiopyrad] the “Disease Severity Intensity” value [1, 7] was “No disease”, the “Disease Severity Intensity” value [1, 8] was “No disease” and the “Disease Severity Intensity” value ([1]; 21 dpi, rate N (g a.i./ha): ADF-16 100, penthiopyrad 200, metconazole 90, tebuconazole 250, control 36.5) was 0.0 +/− 0.0b %. For the same molecule, the “Disease Severity Intensity” value ([1]; 21 dpi, rate N/2.5 (g a.i./ha): ADF-16 40, penthiopyrad 80, metconazole 36, tebuconazole 100, control 36.5) was 0.0 +/− 0.0b %, the “Disease Severity Intensity” value ([1]; 28 dpi, rate N (g a.i./ha): ADF-16 100, penthiopyrad 200, metconazole 90, tebuconazole 250, control 77.4) was 0.0 +/− 0.0b % and the “Disease Severity Intensity” value ([1]; 28 dpi, rate N/2.5 (g a.i./ha): ADF-16 40, penthiopyrad 80, metconazole 36, tebuconazole 100, control 77.4) was 0.0 +/− 0.0b %. For the same molecule, the “Efficacy (from AUDPC, percentage of the untreated control)” value [1, 9] was 100%, the AUDPC [1, 9] was 0.0 +/− 0.0b and the “Efficacy (from AUDPC, percentage of the untreated control)” value [1, 10] was 100%. For the same molecule, the AUDPC [1, 10] was 0.0 +/− 0.0b, the “Disease Severity Intensity” value [2, 7] was “No disease” and the “Disease Severity Intensity” value [2, 8] was “No disease”. The “Disease Severity Intensity” value ([2]; 21 dpi, rate N (g a.i./ha): ADF-16 100, penthiopyrad 200, metconazole 90, tebuconazole 250, control 63.3) was 1.2 +/− 0.5d %, the “Disease Severity Intensity” value ([2]; 21 dpi, rate N/2.5 (g a.i./ha): ADF-16 40, penthiopyrad 80, metconazole 36, tebuconazole 100, control 63.3) was 19.9 +/− 3.8b % and the “Disease Severity Intensity” value ([2]; 28 dpi, rate N (g a.i./ha): ADF-16 100, penthiopyrad 200, metconazole 90, tebuconazole 250, control 88.1) was 18.2 +/− 2.8e %. For the same molecule, the “Disease Severity Intensity” value ([2]; 28 dpi, rate N/2.5 (g a.i./ha): ADF-16 40, penthiopyrad 80, metconazole 36, tebuconazole 100, control 88.1) was 74.3 +/− 2.3b %, the fungicide efficacy ([2]; higher application rates (N)) was at least 85% and the fungicide efficacy ([2]; lower application rates (N/2.5)) was at most 70%. For the same molecule, the “Efficacy (from AUDPC, percentage of the untreated control)” value [2, 9] was 93.3%, the AUDPC [2, 9] was 80.2 ± 9.8 days and the “Efficacy (from AUDPC, percentage of the untreated control)” value [2, 10] was 55.0%. The AUDPC [2, 10] was 537.9 +/− 53.2b, the “Disease Severity Intensity” value ([3]; 15 dpi, rate N (g a.i./ha): ADF-16 100, penthiopyrad 200, metconazole 90, tebuconazole 250, control 47.9) was 12.9 +/− 2.1c % and the “Disease Severity Intensity” value ([3]; 15 dpi, rate N/2.5 (g a.i./ha): ADF-16 40, penthiopyrad 80, metconazole 36, tebuconazole 100, control 47.9) was 27.5 +/− 2.2b %. The “Disease Severity Intensity” value ([3]; 21 dpi, rate N (g a.i./ha): ADF-16 100, penthiopyrad 200, metconazole 90, tebuconazole 250, control 81.0) was 70.2 +/− 2.8b %, the “Disease Severity Intensity” value ([3]; 21 dpi, rate N/2.5 (g a.i./ha): ADF-16 40, penthiopyrad 80, metconazole 36, tebuconazole 100, control 81.0) was 72.0 +/− 3.6b % and the “Disease Severity Intensity” value ([3]; 28 dpi, rate N (g a.i./ha): ADF-16 100, penthiopyrad 200, metconazole 90, tebuconazole 250, control 92.2) was 90.6 +/− 1.7ab %. For the same molecule, the “Disease Severity Intensity” value ([3]; 28 dpi, rate N/2.5 (g a.i./ha): ADF-16 40, penthiopyrad 80, metconazole 36, tebuconazole 100, control 92.2) was 90.9 +/− 1.6ab %, the “Efficacy (from AUDPC, percentage of the untreated control)” value [3, 9] was 32.9% and the AUDPC [3, 9] was 908.4 +/− 11.3c. For the same molecule, the “Efficacy (from AUDPC, percentage of the untreated control)” value [3, 10] was 20.4%, the AUDPC [3, 10] was 1076.9 +/− 17.9b and the “Disease Severity Intensity” value ([4]; 15 dpi, rate N (g a.i./ha): ADF-16 100, penthiopyrad 200, metconazole 90, tebuconazole 250, control 22.0) was 0.0 +/− 0.0b %. For the same molecule, the “Disease Severity Intensity” value ([4]; 15 dpi, rate N/2.5 (g a.i./ha): ADF-16 40, penthiopyrad 80, metconazole 36, tebuconazole 100, control 22.0) was 0.0 +/− 0.0b %, the “Disease Severity Intensity” value ([4]; 21 dpi, rate N (g a.i./ha): ADF-16 100, penthiopyrad 200, metconazole 90, tebuconazole 250, control 81.7) was 0.0 +/− 0.0c % and the “Disease Severity Intensity” value ([4]; 21 dpi, rate N/2.5 (g a.i./ha): ADF-16 40, penthiopyrad 80, metconazole 36, tebuconazole 100, control 81.7) was 0.0 +/− 0.0c %. The “Disease Severity Intensity” value ([4]; 28 dpi, rate N (g a.i./ha): ADF-16 100, penthiopyrad 200, metconazole 90, tebuconazole 250, control 91.0) was 0.0 +/− 0.0f %, the “Disease Severity Intensity” value ([4]; 28 dpi, rate N/2.5 (g a.i./ha): ADF-16 40, penthiopyrad 80, metconazole 36, tebuconazole 100, control 91.0) was 2.0 +/− 0.8e % and the “Disease Severity Intensity” value [5, 7] was “No disease”. The “Disease Severity Intensity” value [5, 8] was “No disease”, the “Disease Severity Intensity” value ([5]; 21 dpi, rate N (g a.i./ha): ADF-16 100, penthiopyrad 200, metconazole 90, tebuconazole 250, control 77.2) was 0.3 +/− 0.3e % and the “Disease Severity Intensity” value ([5]; 21 dpi, rate N/2.5 (g a.i./ha): ADF-16 40, penthiopyrad 80, metconazole 36, tebuconazole 100, control 77.2) was 0.0 +/− 0.0e %. The “Disease Severity Intensity” value ([5]; 28 dpi, rate N (g a.i./ha): ADF-16 100, penthiopyrad 200, metconazole 90, tebuconazole 250, control 95.5) was 1.2 +/− 0.6g %, the “Disease Severity Intensity” value ([5]; 28 dpi, rate N/2.5 (g a.i./ha): ADF-16 40, penthiopyrad 80, metconazole 36, tebuconazole 100, control 95.5) was 2.0 +/− 1.4g % and the “Disease Severity Intensity” value ([6]; 15 dpi, rate N (g a.i./ha): ADF-16 100, penthiopyrad 200, metconazole 90, tebuconazole 250, control 36.0) was 0.0 +/− 0.0b %. For the same molecule, the “Disease Severity Intensity” value ([6]; 15 dpi, rate N/2.5 (g a.i./ha): ADF-16 40, penthiopyrad 80, metconazole 36, tebuconazole 100, control 36.0) was 0.0 +/− 0.0b %, the “Disease Severity Intensity” value ([6]; 21 dpi, rate N (g a.i./ha): ADF-16 100, penthiopyrad 200, metconazole 90, tebuconazole 250, control 84.3) was 10.9 +/− 2.1e % and the “Disease Severity Intensity” value ([6]; 21 dpi, rate N/2.5 (g a.i./ha): ADF-16 40, penthiopyrad 80, metconazole 36, tebuconazole 100, control 84.3) was 70.7 +/− 3.3b %. For the same molecule, the “Disease Severity Intensity” value ([6]; 28 dpi, rate N (g a.i./ha): ADF-16 100, penthiopyrad 200, metconazole 90, tebuconazole 250, control 95.7) was 54.9 +/− 3.2d %, the “Disease Severity Intensity” value ([6]; 28 dpi, rate N/2.5 (g a.i./ha): ADF-16 40, penthiopyrad 80, metconazole 36, tebuconazole 100, control 95.7) was 86.5 +/− 2.1c % and the “Efficacy (from AUDPC, percentage of the untreated control)” value [6, 9] was 79.2%. The AUDPC [6, 9] was 262.9 ± 12.5 days, the “Efficacy (from AUDPC, percentage of the untreated control)” value [6, 10] was 39.5% and the AUDPC [6, 10] was 763.1 +/− 4.4b.
